For experiment [1], the target named is Histamine H2 receptor (Cavia porcellus) (UniProt P47747). The experiment can be described thus: Intrinsic activity was evaluated against H2 receptor in guinea pig atrium. In kind it is tissue-based. The note with it: Cardiac atrium.
In experiment [2] the target is Histamine H1 receptor (Cavia porcellus) (UniProt P31389). Kind of experiment: Antagonistic activity (H1 antagonism) evaluated by the inhibition of histamine-stimulated contraction in guinea pig ileum at a concentration of 1E-7 - 1E-4 M. In kind it is functional, tissue-based.
Histamine H1 receptor (Cavia porcellus), sequence (P31389 whole entry): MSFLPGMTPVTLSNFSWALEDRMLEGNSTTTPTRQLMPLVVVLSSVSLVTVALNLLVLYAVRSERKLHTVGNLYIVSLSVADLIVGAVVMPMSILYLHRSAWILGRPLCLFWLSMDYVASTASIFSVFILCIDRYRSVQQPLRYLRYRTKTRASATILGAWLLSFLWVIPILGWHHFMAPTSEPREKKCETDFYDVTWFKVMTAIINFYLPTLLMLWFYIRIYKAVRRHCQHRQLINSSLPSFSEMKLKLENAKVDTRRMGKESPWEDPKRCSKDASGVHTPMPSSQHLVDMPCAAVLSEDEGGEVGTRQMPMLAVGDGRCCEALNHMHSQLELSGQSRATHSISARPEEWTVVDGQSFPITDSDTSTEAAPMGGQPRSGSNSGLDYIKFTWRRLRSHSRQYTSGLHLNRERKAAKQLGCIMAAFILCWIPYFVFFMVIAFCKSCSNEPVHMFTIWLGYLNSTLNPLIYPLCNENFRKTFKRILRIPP
For experiment [3], the target named is Histamine H2 receptor (Cavia porcellus) (UniProt P47747). Kind of experiment: Histamine H2 receptor agonistic activity was evaluated by the inhibition of histamine-stimulated contraction in guinea pig atrium. The note with it: Cardiac atrium. Format: functional, tissue-based.
The target in experiment [4] is T1, Neuropeptide Y receptor type 1 (Homo sapiens) (UniProt P25929).
T1 sequence (whole entry): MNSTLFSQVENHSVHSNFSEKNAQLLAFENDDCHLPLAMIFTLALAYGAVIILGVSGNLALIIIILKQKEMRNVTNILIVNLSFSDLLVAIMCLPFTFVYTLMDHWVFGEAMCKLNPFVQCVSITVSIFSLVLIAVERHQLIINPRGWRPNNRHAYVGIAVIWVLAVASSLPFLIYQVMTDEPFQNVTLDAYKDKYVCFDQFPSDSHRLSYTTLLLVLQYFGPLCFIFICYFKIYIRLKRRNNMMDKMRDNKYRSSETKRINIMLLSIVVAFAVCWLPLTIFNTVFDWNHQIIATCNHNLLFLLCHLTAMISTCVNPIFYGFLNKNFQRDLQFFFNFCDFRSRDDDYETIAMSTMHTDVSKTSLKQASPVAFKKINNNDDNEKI
The experiment can be described thus: Tested for inhibition of NPY-induced increase in [Ca2+] at 100 uM concentration in human erythroleukemia cells. In kind it is functional.

In experiment [5] the target is T1, Neuropeptide Y receptor type 1 (Homo sapiens). The experiment can be described thus: Tested for inhibition of NPY-induced increase in [Ca2+] at 10 uM concentration in human erythroleukemia cells. Format: functional.
The target in experiment [6] is Histamine H2 receptor (Cavia porcellus) (UniProt P47747). The experiment can be described thus: Histamine H2 receptor […] activity (positive chronotropism) was evaluated by the inhibition of histamine-stimulated contraction in guinea pig atrium at a concentration of 1E-7 - 1E-4 M. Format: functional, tissue-based. The conditions noted are these: Cardiac atrium.

The target of experiment [7] is T1, Neuropeptide Y receptor type 1 (Homo sapiens). Kind of experiment: Tested for inhibition of NPY-induced increase in [Ca2+] at 10 uM concentration in human erythroleukemia cells; inactive. In kind it is functional.
In experiment [8] the target is Histamine H2 receptor (Cavia porcellus) (UniProt P47747). Kind of experiment: Histamine H2 receptor agonistic activity (positive chronotropism) was evaluated by the inhibition of histamine-stimulated contraction in guinea pig atrium; Inactive. Format: functional, tissue-based. The note with it: Cardiac atrium.
In experiment [9] the target is T1, Neuropeptide Y receptor type 1 (Homo sapiens). The experiment can be described thus: Tested for inhibition of NPY-induced increase in [Ca2+] at 10 uM concentration in human erythroleukemia cells; Not determined. Format: functional.
The target is the same in experiment [10]. The experiment can be described thus: (§1) pA2 for inhibition of NPY-stimulated [Ca2+] mobilization in HEL cells. Format: cell-based.
Experiment [11] addresses Histamine H2 receptor (Cavia porcellus) (UniProt P47747). Kind of experiment: Intrinsic activity was evaluated in guinea pig atrium at a concentration of 1E-7 - 1E-4 M. Format: tissue-based. The conditions noted are these: Cardiac atrium.
The target of experiment [12] is T2, Neuropeptide Y receptor type 1 (Homo sapiens, UniProt P25929).
T2 sequence (P25929 whole entry): T1 sequence (whole entry)
The description is as §1. In kind it is functional, cell-based. The note with it: read-out: pA2 (converted).

The target of experiment [13] is Histamine H2 receptor (Cavia porcellus) (UniProt P47747). Kind of experiment: Intrinsic activity was evaluated against H2 receptor in guinea pig atrium at a concentration of 1E-7 - 1E-4 M. Format: tissue-based. The conditions noted are these: Cardiac atrium.
The target of experiment [14] is T1, Neuropeptide Y receptor type 1 (Homo sapiens). Kind of experiment: Tested for inhibition of NPY-induced increase in [Ca2+] at 10 uM concentration in human erythroleukemia cells; Not determined; inactive. In kind it is functional.
Experiment [15] has the same target. Kind of experiment: Tested for inhibition of NPY-induced increase in [Ca2+] at 100 uM concentration in human erythroleukemia cells; inactive. Format: functional.

The source made the active and inactive calls. The rule behind the calls is not given here.

Histamine H2 receptor (Cavia porcellus), sequence (P47747 whole entry): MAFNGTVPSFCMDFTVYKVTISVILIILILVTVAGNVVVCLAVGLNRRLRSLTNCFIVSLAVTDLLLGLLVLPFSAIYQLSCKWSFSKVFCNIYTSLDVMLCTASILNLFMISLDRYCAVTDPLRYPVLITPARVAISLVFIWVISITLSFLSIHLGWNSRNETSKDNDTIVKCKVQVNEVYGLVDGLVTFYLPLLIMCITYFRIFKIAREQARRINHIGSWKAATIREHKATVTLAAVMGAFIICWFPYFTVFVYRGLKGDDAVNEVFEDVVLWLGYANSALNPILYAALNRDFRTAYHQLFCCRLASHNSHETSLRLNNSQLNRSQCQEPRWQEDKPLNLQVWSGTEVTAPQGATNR

By pKB is commonly meant −log10 of the KB, conventionally taken in molar units. Higher therefore signals a low KB. As usually defined, the inhibition is how much of the control response was suppressed. In the case of `CN/C(=N\CCC(c1ccc(F)cc1)c1ccccn1)NCCCc1c[nH]cn1` (stereo unspecified), the Intrinsic activity in [1] came to 1. Further, in experiment [2], the pKB is 5.08. In addition, the pD2 in experiment [3] was determined as 5.65. For the same compound, in experiment [4], the inhibition amounted to 13%.

For `Cc1ccc(CC(CC/N=C(/NCCCc2c[nH]cn2)NC2CCCCC2)c2ccccn2)cc1` (stereo unspecified), the inhibition was found to be 24% in experiment [5] and 75% in experiment [4]. For the same compound, in experiment [1], the Intrinsic activity came to 1. Moreover, the pKB was found to be 5.4 in [2] and 5.93 in experiment [6].

`N#CN/C(=N\CCC(c1ccc(F)cc1)c1ccccn1)NCCCc1c[nH]cn1` (stereo unspecified) showed an inhibition in [4] of 13%. Moreover, the inhibition result in [7] is “inactive”. Moreover, the pD2 entry in experiment [8] is “inactive”.

In the case of `N=C(CCCCc1c[nH]cn1)NCCC(c1ccc(F)cc1)c1ccccn1` (stereo unspecified), the inhibition stood at 5% in experiment [5] and 27% in [4]. In [1], this compound displayed an Intrinsic activity of 0.6. The pKB in experiment [2] was 6.56. In experiment [3], the pD2 was found to be 6.47.

On to `N=C(NCCCc1c[nH]cn1)NCCC(c1ccc(F)cc1)c1ccccn1` (stereo unspecified), for which the inhibition stood at 18% in experiment [5] and 75% in experiment [4]. In [1], this compound registered an Intrinsic activity of 1. In [2], this compound gave a negative-log KB (pKB) of 7.65. In addition, the pD2 in [3] came to 8.01.

In the case of `N=C(NCCCc1c[nH]cn1)NCCC(c1ccccc1)c1ccccn1` (stereo unspecified), the results for the inhibition in [5] and in experiment [4] were 2% and 69%, respectively. The same compound registered an Intrinsic activity in experiment [1] of 1. The pKB in experiment [2] is 7.01. The pD2 in experiment [3] was 7.39.

For the compound `Clc1ccc(C(CCC/N=C(/NCCCc2c[nH]cn2)NC2CCCCC2)c2ccccn2)cc1Cl` (stereo unspecified), the inhibition in experiment [9] was 30%; in experiment [4] it was 87%. Besides, the Intrinsic activity in [1] was 1. Also, the pKB in experiment [2] was determined as 5.76. In experiment [3], the pD2 turned out to be 4.65.

For `N=C(NCCCc1c[nH]cn1)NCCC(c1ccc(Cl)c(Cl)c1)c1ccccn1` (stereo unspecified), the inhibition in experiment [5] came out at 81%; in experiment [4] it was 93%. Further, the pKB turned out to be 6.25 in experiment [10] and 7.1 in experiment [2]. This compound had an Intrinsic activity in experiment [1] of 1. In experiment [3], the pD2 turned out to be 8.19.

As to `N=C(NCCCc1c[nH]cn1)NCCCC(c1ccccc1)c1ccccn1` (stereo unspecified), the inhibition in experiment [5] amounted to 8%; in experiment [4] it was 84%. The same compound returned an Intrinsic activity in [1] of 1. Also, the negative logarithm of the KB (pKB) in experiment [2] came to 6.06. Moreover, the pD2 in experiment [3] is 6.61.

Regarding `Brc1ccc(C(CC/N=C(/NCCCc2c[nH]cn2)Nc2ccccc2)c2ccccn2)cc1` (stereo unspecified), the inhibition in [5] stood at 24%; in experiment [4], 76%. Moreover, the pKB in [2] was 5.81; in experiment [6], 5.14. This compound displayed an Intrinsic activity in experiment [11] of 1.

Compound `CN/C(=N\CCC(c1ccc(Br)cc1)c1ccccn1)NCCCc1c[nH]cn1` (stereo unspecified) gave an Intrinsic activity in experiment [1] of 0.9. The same compound displayed a pKB in [2] of 5.71. For the same compound, the pD2 in [3] came to 5.75. Also, the inhibition in experiment [4] stood at 38%. The inhibition result in [7] was “inactive”.

With `N=C(NCCCc1c[nH]cn1)NCCC(c1cc(F)cc(F)c1)c1ccccn1` (stereo unspecified), the Kb in experiment [12] was 37.2 µM. For the same compound, in experiment [1], the Intrinsic activity is 1. Moreover, the pKB in [2] was 6.56. In addition, the pD2 in experiment [3] worked out at 8.05. The compound also came in with an inhibition in experiment [4] of 62%.

With `CN(CCC(c1ccc(F)cc1)c1ccccn1)C(=N)NCCCc1c[nH]cn1` (stereo unspecified), the Intrinsic activity in [1] turned out to be 0.8. For the same compound, in experiment [2], the pKB was found to be 5.96. Further, the pD2 in [3] turned out to be 5.4. Further, the inhibition in experiment [4] is 42%.

`Fc1ccc(C(CCCNCCCc2c[nH]cn2)c2ccccn2)cc1` (stereo unspecified) displayed an Intrinsic activity in [1] of 0.5. Besides, the pKB in [2] was determined as 6.43. The pD2 in experiment [3] stood at 5.17. The same compound came in with an inhibition in experiment [4] of 24%.

With `Clc1ccc(C(CCC/N=C(/NCCCc2c[nH]cn2)Nc2ccccc2)c2ccccn2)cc1Cl` (stereo unspecified), in experiment [13], the Intrinsic activity stood at 1. The inhibition in [9] was 48%; in experiment [4] it was 78%. The values for the pKB in [2] and in [6] were 5.5 and 4.97, respectively.

`CN/C(=N\CCCC(c1ccc(Cl)c(Cl)c1)c1ccccn1)NCCCc1c[nH]cn1` (stereo unspecified): the Intrinsic activity in experiment [1] was 1. The same compound registered a pKB in experiment [2] of 6.16. For the same compound, the pD2 in experiment [3] was 5.58. The inhibition in [4] came to 41%.

The compound `Cc1ccc(CC(CC/N=C(\N)NCCCc2c[nH]cn2)c2ccccn2)cc1` (stereo unspecified) came in with an inhibition in experiment [5] of 23%. In experiment [1], this compound gave an Intrinsic activity of 1. The compound also showed a pKB in experiment [2] of 6.4. The compound also gave a pD2 in experiment [3] of 5.81.

As for `CCOC(=O)N/C(=N\CCC(c1ccc(F)cc1)c1ccccn1)NCCCc1c[nH]cn1` (stereo unspecified), the inhibition is 2% in experiment [5] and 4% in [4]. The same compound displayed a pKB in experiment [2] of 5.3. Also, in experiment [8], the pD2 entry was “inactive”.

In [13], `O=C(CCC(c1ccc(F)cc1)c1ccccn1)NCCCc1c[nH]cn1` (stereo unspecified) displayed an Intrinsic activity of 1. The inhibition result in experiment [14] is “inactive”. In addition, the pKB in experiment [2] amounted to 3.97. The compound further returned a pD2 in experiment [3] of less than 3.

Regarding `N=C(NCCCc1c[nH]cn1)NCCC(c1ccc(Br)cc1)c1ccccn1` (stereo unspecified), the inhibition in [5] was 27%; in experiment [4], 85%. In addition, the Intrinsic activity in experiment [1] came out at 1. Also, the pKB in experiment [2] was found to be 6.92. The same compound displayed a pD2 in [3] of 7.48.

As for `c1ccc(C(CCC/N=C(/NCCCc2c[nH]cn2)NC2CCCCC2)c2ccccn2)cc1` (stereo unspecified), the results for the inhibition in experiment [5] and in experiment [4] were 6% and 53%, respectively. Also, in experiment [1], the Intrinsic activity was 0.25. The compound also came in with a pKB in experiment [2] of 5.56. Moreover, in experiment [3], the pD2 is 4.49.

Consider `Brc1ccc(C(CC/N=C(/NCCCc2c[nH]cn2)NC2CCCCC2)c2ccccn2)cc1` (stereo unspecified), for which the inhibition worked out at 36% in experiment [5] and 82% in experiment [4]. Also, the Intrinsic activity in experiment [1] came to 0.65. This compound showed a negative-log KB (pKB) in experiment [2] of 5.42. In addition, the pD2 in [3] came to 4.69.

In turn, `N=C(CCC(c1ccccc1)c1ccccn1)NCCCc1c[nH]cn1` (stereo unspecified) displayed an Intrinsic activity in [1] of 1. In [2], this compound had a pKB of 6.45. Further, the pD2 in experiment [3] worked out at 6.5. Moreover, the inhibition in experiment [4] amounted to 45%.

On to `NC(=O)N/C(=N\CCC(c1ccc(F)cc1)c1ccccn1)NCCCc1c[nH]cn1` (stereo unspecified), for which the inhibition in [5] is 2%; in experiment [4] it was 62%.

In experiment [2], `N=C(N)NCCC(c1ccc(F)cc1)c1ccccn1` (stereo unspecified) came in with a pKB of 6.44. Besides, the inhibition entry in experiment [15] is “inactive”. In experiment [8], the pD2 result was “inactive”.

`N=C(NCCCc1c[nH]cn1)NCCCC(c1ccc(Cl)c(Cl)c1)c1ccccn1` (stereo unspecified): the figures for the inhibition in experiment [5] and in experiment [4] were 31% and 78%, respectively. Moreover, the Intrinsic activity in experiment [1] is 1. In experiment [2], this compound gave a negative logarithm of the KB (pKB) of 7.46. This compound also yielded a pD2 in experiment [3] of 6.67.
